Consider 51 compounds from ChEMBL document CHEMBL3045699, “Three-dimensional quantitative structureactivity relationship approach for the prediction of the antimycobacterial activity of 4-oxo-dihydroquinoline-3-carboxylic acid derivatives” (2008).

Converted amounts (≈) assume the structure as drawn.

In the experiment the test system is Mycobacterium tuberculosis. As to the kind of experiment: Antimycobacterial activity against Mycobacterium tuberculosis. It is filed as functional. As to conditions: for MIC: Mycobacterium tuberculosis.

Take `CC1CN(c2ccc3c(=O)c(C(=O)O)cn(-c4c(F)cccc4F)c3c2)CCN1` (configuration not stated): the “log(1/C)” value came out at 2.922 and the minimum inhibitory concentration (MIC) (commonly the lowest concentration found to suppress growth) was determined as 1.2 µM (≈ 0.478 µg/mL).

Take `CC1CN(c2ccc3c(=O)c(C(=O)O)cn(C(C)(C)C)c3c2)CCN1` (configuration not stated): the “log(1/C)” value is 3.78 and the lowest concentration to inhibit growth (MIC) was 0.166 µM (≈ 0.057 µg/mL).

Turning to `CC1CN(c2ccc3c(=O)c(C(=O)O)cn(C(C)(C)C)c3c2)CC(C)N1` (configuration not stated), the “log(1/C)” value is 3.796 and the MIC came out at 0.16 µM (≈ 0.0572 µg/mL).

With `CCN1CCN(c2ccc3c(=O)c(C(=O)O)cn(C(C)(C)C)c3c2)CC1`, the “log(1/C)” value is given as 3.461 and the minimum inhibitory concentration (MIC) stood at 0.346 µM (≈ 0.124 µg/mL).

In the case of `CC(C)(C)n1cc(C(=O)O)c(=O)c2ccc(N3CCC(N)C3)cc21` (configuration not stated), the “log(1/C)” value is 3.427 and the MIC was found to be 0.374 µM (≈ 0.123 µg/mL).

Regarding `CNCC1CCN(c2ccc3c(=O)c(C(=O)O)cn(C(C)(C)C)c3c2)C1` (configuration not stated), the “log(1/C)” value is recorded as 3.177 and the MIC came to 0.666 µM (≈ 0.238 µg/mL).

In the case of `CC(C)n1cc(C(=O)O)c(=O)c2ccc(N3CCNCC3)cc21`, the “log(1/C)” value was 1.921 and the MIC was 12 µM (≈ 3.78 µg/mL).

For the compound `CC1CN(c2ccc3c(=O)c(C(=O)O)cn(C(C)C)c3c2)CCN1` (configuration not stated), the “log(1/C)” value is recorded as 2.24 and 5.76 µM (≈ 1.9 µg/mL) was the least that counted as inhibitory (MIC).

With `CC1CN(c2ccc3c(=O)c(C(=O)O)cn(C(C)C)c3c2)CC(C)N1` (configuration not stated), the “log(1/C)” value turned out to be 2.257 and 5.53 µM (≈ 1.9 µg/mL) was the least that counted as inhibitory (MIC).

Consider `CCN1CCN(c2ccc3c(=O)c(C(=O)O)cn(C(C)C)c3c2)CC1`, for which the “log(1/C)” value worked out at 1.956 and it took 11.1 µM (≈ 3.8 µg/mL) to inhibit growth (MIC).

In the case of `CC(C)n1cc(C(=O)O)c(=O)c2ccc(N3CCC(N)C3)cc21` (configuration not stated), the “log(1/C)” value was found to be 2.222 and the minimal inhibitory concentration (MIC) was determined as 6 µM (≈ 1.89 µg/mL).

With `CNCC1CCN(c2ccc3c(=O)c(C(=O)O)cn(C(C)C)c3c2)C1` (configuration not stated), the “log(1/C)” value stood at 1.655 and 22.1 µM (≈ 7.6 µg/mL) was the least that counted as inhibitory (MIC).

`O=C(O)c1cn(C2CCC2)c2cc(N3CCNCC3)ccc2c1=O`: the “log(1/C)” value was 2.237 and inhibition of growth (MIC) required 5.79 µM (≈ 1.9 µg/mL).

For the compound `CC1CN(c2ccc3c(=O)c(C(=O)O)cn(C4CCC4)c3c2)CCN1` (configuration not stated), the “log(1/C)” value came out at 2.556 and the minimal inhibitory concentration (MIC) amounted to 2.78 µM (≈ 0.95 µg/mL).

Regarding `CC1CN(c2ccc3c(=O)c(C(=O)O)cn(C4CCC4)c3c2)CC(C)N1` (configuration not stated), the “log(1/C)” value worked out at 2.873 and the MIC stood at 1.34 µM (≈ 0.476 µg/mL).

Turning to `CCN1CCN(c2ccc3c(=O)c(C(=O)O)cn(C4CCC4)c3c2)CC1`, the “log(1/C)” value amounted to 2.271 and inhibition of growth (MIC) required 5.36 µM (≈ 1.9 µg/mL).

As to `NC1CCN(c2ccc3c(=O)c(C(=O)O)cn(C4CCC4)c3c2)C1` (configuration not stated), the “log(1/C)” value came out at 2.556 and the minimum inhibitory concentration (MIC) is 2.78 µM (≈ 0.911 µg/mL).

As for `CNCC1CCN(c2ccc3c(=O)c(C(=O)O)cn(C4CCC4)c3c2)C1` (configuration not stated), the “log(1/C)” value was 1.97 and the minimal inhibitory concentration (MIC) is 10.7 µM (≈ 3.81 µg/mL).

`O=C(O)c1cn(-c2c(F)cccc2F)c2cc(N3CCNCC3)ccc2c1=O`: the “log(1/C)” value is 2.907 and the MIC came out at 1.24 µM (≈ 0.478 µg/mL).

Regarding `CN1CCN(c2ccc3c(=O)c(C(=O)O)cn(-c4c(F)cccc4F)c3c2)CC1`, the “log(1/C)” value is 2.922 and the minimum inhibitory concentration (MIC) was found to be 1.2 µM (≈ 0.478 µg/mL).

As for `CC1CN(c2ccc3c(=O)c(C(=O)O)cn(-c4c(F)cccc4F)c3c2)CC(C)N1` (configuration not stated), the “log(1/C)” value was found to be 2.936 and the MIC was found to be 1.16 µM (≈ 0.479 µg/mL).

Regarding `CCC1CN(c2ccc3c(=O)c(C(=O)O)cn(-c4c(F)cccc4F)c3c2)CCN1` (configuration not stated), the “log(1/C)” value came out at 2.635 and the MIC was 2.32 µM (≈ 0.958 µg/mL).

In the case of `CCN1CCN(c2ccc3c(=O)c(C(=O)O)cn(-c4c(F)cccc4F)c3c2)CC1`, the “log(1/C)” value turned out to be 2.635 and the MIC turned out to be 2.32 µM (≈ 0.958 µg/mL).

On to `CC(C)N1CCN(c2ccc3c(=O)c(C(=O)O)cn(-c4c(F)cccc4F)c3c2)CC1`, for which the “log(1/C)” value was 2.649 and the MIC turned out to be 2.25 µM (≈ 0.96 µg/mL).

Regarding `CC(C)CN1CCN(c2ccc3c(=O)c(C(=O)O)cn(-c4c(F)cccc4F)c3c2)CC1`, the “log(1/C)” value came out at 2.06 and 8.71 µM (≈ 3.84 µg/mL) was the least that counted as inhibitory (MIC).

As for `CCCCN1CCN(c2ccc3c(=O)c(C(=O)O)cn(-c4c(F)cccc4F)c3c2)CC1`, the “log(1/C)” value is 2.361 and the MIC amounted to 4.35 µM (≈ 1.92 µg/mL).

With `NC1CCN(c2ccc3c(=O)c(C(=O)O)cn(-c4c(F)cccc4F)c3c2)C1` (configuration not stated), the “log(1/C)” value came out at 3.492 and the lowest concentration to inhibit growth (MIC) was 0.322 µM (≈ 0.124 µg/mL).

For `CNCC1CCN(c2ccc3c(=O)c(C(=O)O)cn(-c4c(F)cccc4F)c3c2)C1` (configuration not stated), the “log(1/C)” value was 3.237 and the minimum inhibitory concentration (MIC) is 0.579 µM (≈ 0.239 µg/mL).

For `CCNCC1CCN(c2ccc3c(=O)c(C(=O)O)cn(-c4c(F)cccc4F)c3c2)C1` (configuration not stated), the “log(1/C)” value amounted to 2.95 and the minimal inhibitory concentration (MIC) came to 1.12 µM (≈ 0.48 µg/mL).

As for `CCCn1cc(C(=O)O)c(=O)c2ccc(N3CCNCC3)cc21`, the “log(1/C)” value is reported as 2.203 and it took 6.26 µM (≈ 1.98 µg/mL) to inhibit growth (MIC).

As to `CCCn1cc(C(=O)O)c(=O)c2ccc(N3CCNC(C)C3)cc21` (configuration not stated), the “log(1/C)” value is 2.222 and the MIC was determined as 6 µM (≈ 1.98 µg/mL).

`CCCn1cc(C(=O)O)c(=O)c2ccc(N3CC(C)NC(C)C3)cc21` (configuration not stated): the “log(1/C)” value was 2.541 and the minimum inhibitory concentration (MIC) came out at 2.88 µM (≈ 0.989 µg/mL).

As to `CCCn1cc(C(=O)O)c(=O)c2ccc(N3CCN(CC)CC3)cc21`, the “log(1/C)” value is 2.842 and the MIC was 1.44 µM (≈ 0.494 µg/mL).

With `CCCn1cc(C(=O)O)c(=O)c2ccc(N3CCC(N)C3)cc21` (configuration not stated), the “log(1/C)” value worked out at 1.902 and the MIC amounted to 12.5 µM (≈ 3.95 µg/mL).

With `CCCn1cc(C(=O)O)c(=O)c2ccc(N3CCC(CNC)C3)cc21` (configuration not stated), the “log(1/C)” value was determined as 1.638 and the MIC amounted to 23 µM (≈ 7.91 µg/mL).

`CC(C)(C)n1cc(C(=O)O)c(=O)c2ccc(N3CCNCC3)cc21`: the “log(1/C)” value is reported as 3.427 and the MIC is 0.374 µM (≈ 0.123 µg/mL).

On to `CCC1CN(c2ccc3c(=O)c(C(=O)O)cn(C4CC4)c3c2)CCN1` (configuration not stated), for which the “log(1/C)” value is 3.158 and the MIC turned out to be 0.696 µM (≈ 0.238 µg/mL).

For `CCN1CCN(c2ccc3c(=O)c(C(=O)O)cn(C4CC4)c3c2)CC1`, the “log(1/C)” value was determined as 3.442 and inhibition of growth (MIC) required 0.362 µM (≈ 0.124 µg/mL).

Take `CC(C)N1CCN(c2ccc3c(=O)c(C(=O)O)cn(C4CC4)c3c2)CC1`: the “log(1/C)” value was 3.174 and the minimal inhibitory concentration (MIC) turned out to be 0.669 µM (≈ 0.238 µg/mL).

As for `CC(C)CN1CCN(c2ccc3c(=O)c(C(=O)O)cn(C4CC4)c3c2)CC1`, the “log(1/C)” value was determined as 3.19 and it took 0.645 µM (≈ 0.238 µg/mL) to inhibit growth (MIC).

For `CCCCN1CCN(c2ccc3c(=O)c(C(=O)O)cn(C4CC4)c3c2)CC1`, the “log(1/C)” value came out at 2.889 and the minimal inhibitory concentration (MIC) came to 1.29 µM (≈ 0.477 µg/mL).

Turning to `CNCC1CCN(c2ccc3c(=O)c(C(=O)O)cn(C4CC4)c3c2)C1` (configuration not stated), the “log(1/C)” value came out at 2.857 and the minimum inhibitory concentration (MIC) came out at 1.39 µM (≈ 0.475 µg/mL).

In the case of `CCNCC1CCN(c2ccc3c(=O)c(C(=O)O)cn(C4CC4)c3c2)C1` (configuration not stated), the “log(1/C)” value is reported as 2.873 and it took 1.34 µM (≈ 0.476 µg/mL) to inhibit growth (MIC).

For `CC(C)NCC1CCN(c2ccc3c(=O)c(C(=O)O)cn(C4CC4)c3c2)C1` (configuration not stated), the “log(1/C)” value is listed as 2.889 and the minimal inhibitory concentration (MIC) is 1.29 µM (≈ 0.477 µg/mL).

As for `CN(C)CC1CCN(c2ccc3c(=O)c(C(=O)O)cn(C4CC4)c3c2)C1` (configuration not stated), the “log(1/C)” value was 2.873 and 1.34 µM (≈ 0.476 µg/mL) was the least that counted as inhibitory (MIC).

For the compound `CC1(CN)CCN(c2ccc3c(=O)c(C(=O)O)cn(C4CC4)c3c2)C1` (configuration not stated), the “log(1/C)” value was 3.777 and the minimal inhibitory concentration (MIC) amounted to 0.167 µM (≈ 0.057 µg/mL).

Regarding `CN1CCN(c2ccc3c(=O)c(C(=O)O)cn(C4CC4)c3c2)CC1`, the “log(1/C)” value was found to be 3.14 and the minimum inhibitory concentration (MIC) worked out at 0.724 µM (≈ 0.237 µg/mL).

As for `CC1CN(c2ccc3c(=O)c(C(=O)O)cn(C4CC4)c3c2)CCN1` (configuration not stated), the “log(1/C)” value was 3.14 and the MIC stood at 0.724 µM (≈ 0.237 µg/mL).

For the compound `CC1CN(c2ccc3c(=O)c(C(=O)O)cn(C4CC4)c3c2)CC(C)N1` (configuration not stated), the “log(1/C)” value is given as 3.442 and inhibition of growth (MIC) required 0.362 µM (≈ 0.124 µg/mL).

With `O=C(O)c1cn(C2CC2)c2cc(N3CCNCC3)ccc2c1=O`, the “log(1/C)” value came to 3.122 and inhibition of growth (MIC) required 0.754 µM (≈ 0.236 µg/mL).

As to `NC1CCN(c2ccc3c(=O)c(C(=O)O)cn(C4CC4)c3c2)C1` (configuration not stated), the “log(1/C)” value amounted to 3.122 and the lowest concentration to inhibit growth (MIC) was 0.754 µM (≈ 0.236 µg/mL).
